“Also recorded” adds a separate entry of the source.
How the values were obtained:
[1] = system: BDNF; assay: Steady-state BDNF in brain homogenates by ELISA (rats of the maximum tolerated dose study); format: in vivo, rat; conditions: 135 mg/kg p.o., ten days
Experimental: Actions of oxeladin on BDNF in the brain. […] Cerebral cortex and hippocampal samples were homogenized in TBS supplemented with 0.1% NP-40 detergent and protease inhibitor cocktail. Protein concentrations were determined with a PIERCE® BCA assay (ThermoPierce). Samples were diluted 1:20 and assayed in triplicate according to manufacturer's instructions and assayed a FLEXSTATION® 3 plate reader (Molecular Devices, Sunnyvale, CA).

[2] = system: rat model of focal cerebral ischemia (tMCAO); assay: Infarct and inflammation after tMCAO (TTC, Nissl, GFAP, Iba1); format: in vivo; conditions: for infarct size by TTC staining: 24 hours after a single dose administered 48 hours after tMCAO
Experimental: Assessment of infarct and inflammation. For immunohistochemical assessments 6 random animals were chosen from each group by a treatment-blinded observer to reduce the chance of bias. Nissl staining was performed using thionin. Rats were deeply anesthetized with isoflurane and transcardially perfused with saline and 4% formaldehyde. Brains were removed and post fixed for 48 hours. Coronal sections were made at […] through the region of the middle cerebral artery, affixed to gelatin-coated glass slides and stained. Four sections representing Bregma levels ˜0.7, 0.2, −0.8, and −2.12 were assessed for each animal. Sections were scanned with a 4× objective using a Keyence BZ-X800 microscope and analyzed using Image J. Infarct assessment was performed by a treatment blinded observer two separate times and the average infarct was assessed by determining the extent of histologically healthy tissue using the method of Swanson (Swanson et al., 1990).
The inflammatory response to stroke was observed using immunohistochemistry for glial fibrillary acidic protein (GFAP, Neomarkers RB-087, 1:5000) to assess astrogliosis and ionized calcium binding adapter molecule 1 (Iba1 Fujifilm Wako #019-19741, 1:5000), followed by a biotinylated secondary antibody (Jackson Immuno Research #711-065-152, 1:400). […] Area of staining the striatum, cortex, and dorsal hippocampus was assessed by a treatment-blinded observer using wide-field images captured with a 4× objective using a Keyence BZ-X800. The percent area above threshold was determined with Image J. Images were processed by a treatment-blinded observer using ImageJ by converting images to 8 bits, manually outlining the areas of interest using the corpus callosum to define the boundaries of the striatum and cortex, subtracting background and subjecting the images to auto thresholding. When more than one staining run was required to process tissue, the mean gray values of a standard ROI in the contralateral cortex were used to normalize between the runs.
Rats were sacrificed under isoflurane anesthesia 2, 6, or 24 hours after dosing, and brains were removed to assess protein expression in the ischemic and contralateral cortex by immunoblotting. Brains were rapidly removed, chilled for 2 min in ice-cold saline, and sliced into 2 mm coronal slices with a brain matrix for rapid 2,3,5 triphenyltetrazolium chloride (TTC) staining. Sections were immersed in 1% TTC for 1 minute at room temperature to reveal the extent of the infarct. Cortical penumbra tissue was collected, snap frozen, and stored at −80° C. for subsequent western blotting. Protein was extracted from tissue using T-PER™ reagent with HALT protease inhibitor (Thermo-Pierce), and concentrations were determined with the PIERCE® BCA assay (Thermo-Pierce). Protein was separated on 4-20% SDS-PAGE gels (BioRad) and transferred to nitrocellulose. Blots were probed with primary antibodies for BDNF (Abcam ab226842; 1:1000) and goat anti-rabbit-HRP secondary (Thermo 32260; 1:10,000). Bands were visualized by ECL with PIERCE® SUPERSIGNAL® West Dura Femto (Thermo-Pierce) reagent using a UVP EpiChemi3. Density was assessed with Image J and normalized to β-actin (Thermo MA1-91399; 1:1000).

[3] = system: rat blood; assay: Clotting (streak) assay of thrombotic potential
Experimental: Clotting assays. Thrombotic potential was assessed with trunk blood from donor rats using a protocol modified from Kim et al. (Kim et al., 2010). Oxeladin was compared to whole blood with or without the anticoagulant benzamidine and several other S1R ligands at doses 10× greater than those that stimulate the release of BDNF (Dalwadi et al., 2022; Dalwadi et al., 2017). Blood was rapidly collected into chilled, pre-weighed plastic tubes containing a known quality of EDTA disodium salt (>3.7 mM) electrostatically-coated onto the tube wall. Blood was prevented from coagulating by gently swirling the chilled EDTA-coated tube. The tube was weighed and the volume of collected blood calculated in order to compute the exact concentration of EDTA in the uncoagulated blood sample allowing us to determine which concentration of calcium to add back into the blood to initiate coagulation. Uncoagulated blood samples were stored chilled. The following was be dispensed into NUNC™ MICROWELL™ MiniTrays: 8 μL/well of normal saline containing a concentration of calcium 1.2 mM higher than that of the concentration of EDTA in the blood sample, 1 μL/well of oxeladin, 3 mM benzamidine anticoagulant positive control, or untreated or vehicle negative controls, and 1 μL/well of (EDTA-treated) uncoagulated rat blood. Plates were tilted at a 45° angle at 5, 15, 30, 45 and 60 minutes to observe coagulation (i.e., no streaking) and compared to the controls. Each triplicate well was scored by a treatment-blinded observer as Yes (coagulation, no streaking) or No (no coagulation, streaking). The experiment was repeated with two separate donor rats.
Referring to FIG. 5, the effect on thrombotic activity of test drugs, benzamidine anticoagulant positive control, or untreated or vehicle negative controls on whole blood from donor rats was assessed by tilting treated blood samples at a […] to observe coagulation (i.e., no streaking) between […] (top panel). Blood coagulation was represented by a value between 1 (no streaking, coagulation) and 0 (streaking, less or no coagulation), and values were assigned for each test drug, benzamidine, and untreated and vehicle controls (bottom panel). Quantitative results from these clotting assays, including coagulation half-life, are summarized below in Table 5.

[4] = treatment starting 48 hours after tMCAO, 14-15 days after tMCAO, vs vehicle

## CCN(CC)CCOCCOC(=O)C(CC)(CC)c1ccccc1 [Oxeladin]
[1]
  BDNF levels in the hippocampus (ELISA): not in the hippocampus
[1]; P<0.05
  BDNF levels in the cerebral cortex (ELISA): significant increase; also recorded: significantly increase
[2]; 14-15 days after tMCAO, whole hemisphere, cortex and striatum, vs Vehicle, P<0.05
  infarct extent / loss of healthy brain tissue by Nissl staining: significantly reduced infarct extent
[2]
  infarct size by TTC staining: No difference in infarct size
[2]; listed as oxeladin
  infarct size by TTC staining: No significant difference in infarct size
[2]; [4]
  astrogliosis (GFAP staining): no differences between vehicle and oxeladin treated groups; also recorded: did not alter astrogliosis
  microgliosis (Iba1 staining): no differences observed
[3]
  effect on thrombosis in blood: do not alter thrombosis

From US20250134902A1, “DRUG REPURPOSING FOR DELAYED TREATMENT OF ISCHEMIC STROKE” (UNIVESRITY OF NORTH TEXAS HEALTH SCIENCE CENTER, priority 2022, published 2025)
